From patent publication US10076116B2, “N-cycloalkyl-N-(biheterocyclymethylene)-(thio)carboxamide derivatives” (BAYER CROPSCIENCE AKTIENGESELLSCHAFT, priority 2013, dated 2018)

Key:
[1] = system: Alternaria brassicae; experiment: In vivo preventive test on Alternaria brassicae (leaf spot on radish); conditions: for efficacy: 500 ppm of active ingredient, radish plants sprayed 24 hours before inoculation, evaluated 6 days after inoculation; for Efficacy (Table A1) / Efficacy (Table A2): dose 500 ppm, radish, 6 days after inoculation
Experimental: Example A: In Vivo Preventive Test on Alternaria brassicae (Leaf Spot on Radish) Solvent: 5% by volume of Dimethyl sulfoxide • 10% by volume of Acetone Emulsifier: 1 μL of TWEEN® 80 (Polyoxyethylene (20) sorbitan monooleate) per mg of active ingredient The active ingredients are made soluble and homogenized in a mixture of Dimethyl sulfoxide/Acetone/TWEEN® 80 and then diluted in water to the desired concentration. The young plants of radish are treated by spraying the active ingredient prepared as described above. Control plants are treated only with an aqueous solution of Acetone/Dimethyl sulfoxide/TWEEN® 80. After 24 hours, the plants are contaminated by spraying the leaves with an aqueous suspension of Alternaria brassicae spores. The contaminated radish plants are incubated for 6 days at 20° C. and at 100% relative humidity. The test is evaluated 6 days after the inoculation. 0% means an efficacy which corresponds to that of the control plants while an efficacy of 100% means that no disease is observed.

[2] = log P by HPLC on reversed-phase column (C 18), EEC Directive 79/831 Annex V.A8; type: physicochemical; conditions: HPLC C 18, 40° C., 0.1% aqueous formic acid and acetonitrile, gradient 10% to 90% acetonitrile
Experimental: In table 1, the log P values were determined in accordance with EEC Directive 79/831 Annex V.A8 by HPLC (High Performance Liquid Chromatography) on a reversed-phase column (C 18), using the method described below: Temperature: 40° C.; Mobile phases: 0.1% aqueous formic acid and acetonitrile; linear gradient from 10% acetonitrile to 90% acetonitrile. Calibration was carried out using unbranched alkan-2-ones (comprising 3 to 16 carbon atoms) with known log P values (determination of the log P values by the retention times using linear interpolation between two successive alkanones). lambda-max-values were determined using UV-spectra from 200 nm to 400 nm and the peak values of the chromatographic signals.

[3] = system: Pyrenophora teres; experiment: In vivo preventive test on Pyrenophora teres (net blotch on barley); conditions: for Efficacy (Table D1): dose 500 ppm, barley; for efficacy: 500 ppm of active ingredient, barley plants, evaluated 14 days after inoculation
Experimental: Example D: In Vivo Preventive Test on Pvrenophora Teres (Net Blotch on Barley) Solvent: 5% by volume of Dimethyl sulfoxide • 10% by volume of Acetone Emulsifier: 1 μL of TWEEN® 80 per mg of active ingredient The active ingredients are made soluble and homogenized in a mixture of Dimethyl sulfoxide/Acetone/TWEEN® 80 and then diluted in water to the desired concentration. The young plants of barley are treated by spraying the active ingredient prepared as described above. Control plants are treated only with an aqueous solution of Acetone/Dimethyl sulfoxide/TWEEN® 80. After 24 hours, the plants are contaminated by spraying the leaves with an aqueous suspension of Pyrenophora teres spores. The contaminated barley plants are incubated for 48 hours at 20° C. and at 100% relative humidity and then for 12 days at 20° C. and at 70-80% relative humidity. The test is evaluated 14 days after the inoculation. 0% means an efficacy which corresponds to that of the control plants while an efficacy of 100% means that no disease is observed.

[4] = system: Botrytis cinerea; experiment: In vivo preventive test on Botrytis cinerea (grey mould); conditions: gherkin
Experimental: Example B: In Vivo Preventive Test Botrvtis Cinerea (Grey Mould) Solvent: 5% by volume of Dimethyl sulfoxide • 10% by volume of Acetone Emulsifier: 1 μL of TWEEN® 80 per mg of active ingredient The active ingredients are made soluble and homogenized in a mixture of Dimethyl sulfoxide/Acetone/TWEEN® 80 and then diluted in water to the desired concentration. The young plants of gherkin are treated by spraying the active ingredient prepared as described above. Control plants are treated only with an aqueous solution of Acetone/Dimethyl sulfoxide/TWEEN® 80. After 24 hours, the plants are contaminated by spraying the leaves with an aqueous suspension of Botrytis cinerea spores. The contaminated gherkin plants are incubated for 4 to 5 days at 17° C. and at 90% relative humidity. The test is evaluated 4 to 5 days after the inoculation. 0% means an efficacy which corresponds to that of the control plants while an efficacy of 100% means that no disease is observed.

[5] = system: Uromyces appendiculatus; experiment: In vivo preventive test on Uromyces appendiculatus (bean rust)
Experimental: Example G: In Vivo Preventive Test on Uromvces Appendiculatus (Bean Rust) Solvent: 5% by volume of Dimethyl sulfoxide • 10% by volume of Acetone Emulsifier: 1 μL of TWEEN® 80 per mg of active ingredient The active ingredients are made soluble and homogenized in a mixture of Dimethyl sulfoxide/Acetone/TWEEN® 80 and then diluted in water to the desired concentration. The young plants of bean are treated by spraying the active ingredient prepared as described above. Control plants are treated only with an aqueous solution of Acetone/Dimethyl sulfoxide/TWEEN® 80. After 24 hours, the plants are contaminated by spraying the leaves with an aqueous suspension of Uromyces appendiculatus spores. The contaminated bean plants are incubated for 24 hours at 20° C. and at 100% relative humidity and then for 10 days at 20° C. and at 70-80% relative humidity. The test is evaluated 11 days after the inoculation. 0% means an efficacy which corresponds to that of the control plants while an efficacy of 100% means that no disease is observed.

[6] = system: Puccinia recondita; experiment: In vivo preventive test on Puccinia recondita (brown rust on wheat); conditions: wheat, compounds of this patent
Experimental: Example C: In Vivo Preventive Test on Puccinia recondita (Brown Rust on Wheat) […]
The young plants of wheat are treated by spraying the active ingredient prepared as described above. […]
After 24 hours, the plants are contaminated by spraying the leaves with an aqueous suspension of Puccinia recondita spores. The contaminated wheat plants are incubated for 24 hours at 20° C. and at 100% relative humidity and then for 10 days at 20° C. and at 70-80% relative humidity.
The test is evaluated 11 days after the inoculation. 0% means an efficacy which corresponds to that of the control plants while an efficacy of 100% means that no disease is observed.

Cn1nc(C(F)F)c(C(=O)N(Cc2nn(-c3ccccc3)cc2-c2cccnc2)C2CC2)c1F [CMP1, N-cyclopropyl-3-(difluoromethyl)-5-fluoro-1-methyl-N-{[1-phenyl-4-(pyridin-3-yl)-1H-pyrazol-3-yl]methyl}-1H-pyrazole-4-carboxamide, reference compound]
efficacy [1]: no protection
Efficacy (Table A1) [1]: 0%

Cn1nc(C(F)F)c(C(=O)N(Cc2sc3ccccc3c2-c2coc3ccccc23)C2CC2)c1F [I.53, N-{[3-(1-benzofuran-3-yl)-1-benzothiophen-2-yl]methyl}-N-cyclopropyl-3-(difluoromethyl)-5-fluoro-1-methyl-1H-pyrazole-4-carboxamide]
chromatographic logP ([2]; reversed-phase HPLC column (C 18)): 4.61
efficacy ([1]; listed as 1.53): total protection
Efficacy (Table A2) [1]: 100%
Efficacy (Table D1) [3]: 83%

COc1cccc(-c2c(CN(C(=O)c3c(C(F)F)nn(C)c3F)C3CC3)sc3ccccc23)n1 [CMP5, N-cyclopropyl-3-(difluoromethyl)-5-fluoro-N-{[3-(6-methoxypyridin-2-yl)-1-benzothiophen-2-yl]methyl}-1-methyl-1H-pyrazole-4-carboxamide]
Efficacy (Table A2) [1]: 0%
efficacy [3]: no protection
Efficacy (Table D1) [3]: 0%

Cn1nc(C(F)F)c(C(=O)N(Cc2nn(-c3ccccc3)cc2-c2csc3ccccc23)C2CC2)c1F [I.03]
logP [2]: 4.53
Efficacy (Table A1) [1]: 93%

Cn1nc(C(F)F)c(C(=O)N(Cc2ncc(C(F)(F)F)cc2-c2ccnc3cc(Cl)ccc23)C2CC2)c1F [I.29]
logP [2]: 3.78
Efficacy (Table B1) ([4]; dose 100 ppm): 39%
Efficacy (Table B1) ([4]; dose 500 ppm): 83%
Efficacy (Table G1) ([5]; dose 100 ppm): 67%
Efficacy (Table G1) ([5]; dose 500 ppm): 100%

Cn1nc(C(F)F)c(C(=O)N(Cc2nn(-c3ccccc3)cc2-c2ccc3c(ccn3C)c2)C2CC2)c1F [I.01]
logP [2]: 4.16
Efficacy (Table A1) [1]: 71%

Cn1nc(C(F)F)c(C(=O)N(Cc2sc3ccccc3c2-c2ccncc2)C2CC2)c1F [CMP6, N-cyclopropyl-3-(difluoromethyl)-5-fluoro-1-methyl-N-{[3-(pyridin-4-yl)-1-benzothiophen-2-yl]methyl}-1H-pyrazole-4-carboxamide]
efficacy [3]: no protection
Efficacy (Table D1) [3]: 0%

Cn1nc(C(F)F)c(C(=O)N(Cc2ncc(C(F)(F)F)cc2-c2coc3ccccc23)C2CC2)c1F [I.31]
logP [2]: 4.16
Efficacy (Table B1) ([4]; dose 100 ppm): 100%
Efficacy (Table B1) ([4]; dose 500 ppm): 100%
Efficacy at 100 ppm (Table C1) ([6]; 100 ppm): 88%
Efficacy at 500 ppm (Table C1) ([6]; 500 ppm): 94%
Efficacy (Table G1) ([5]; dose 100 ppm): 78%
Efficacy (Table G1) ([5]; dose 500 ppm): 97%

Cn1nc(C(F)F)c(C(=O)N(Cc2sc3ccccc3c2-c2cccnc2)C2CC2)c1F [CMP4, N-cyclopropyl-3-(difluoromethyl)-5-fluoro-1-methyl-N-{[3-(pyridin-3-yl)-1-benzothiophen-2-yl]methyl}-1H-pyrazole-4-carboxamide, reference compound]
Efficacy (Table A2) [1]: 43%
